Assay results published in PubChem BioAssay (NCI).
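Protocol summary: plate cells (96-well), add compound at 5 concentrations, incubate 48 h, interpolate endpoints linearly. TGI marks complete inhibition of growth.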 Where a SMILES comes first, the peptide text is derived from it. [ ]: non-standard residue; d: D form. The star is where a group is joined. Hyp = O=C(O)[CH]1C[CH](O)CN1; Cbz = O=C(OCc1ccccc1)*

Tests used:
Assay in all cases: growth of human tumour cells (NCI), 48 h
[1] = system: 786-0 renal
[2] = system: A498 renal
[3] = system: HL-60(TB) leukemia
[4] = system: NCI-H226 lung
[5] = system: NCI-H460 lung
[6] = system: OVCAR-3 ovarian
[7] = system: OVCAR-4 ovarian
[8] = system: OVCAR-5 ovarian
[9] = system: OVCAR-8 ovarian
[10] = system: RPMI-8226 leukemia
[11] = system: SF-268 CNS
[12] = system: SK-MEL-28 melanoma
[13] = system: SN12C renal
[14] = system: TK-10 renal
[15] = system: UACC-257 melanoma

Compound | TGI [1] [µM] | TGI [2] [µM] | TGI [3] [µM] | TGI [4] [µM] | TGI [5] [µM] | TGI [6] [µM] | TGI [7] [µM] | TGI [8] [µM] | TGI [9] [µM] | TGI [10] [µM] | TGI [11] [µM] | TGI [12] [µM] | TGI [13] [µM] | TGI [14] [µM] | TGI [15] [µM]
COC(=O)C1=C(C(=O)OC)N(c2ccncc2)C(c2ccco2)=CC1c1ccccc1[N+](=O)[O-] (stereo not given) | 2.94 | 14.1 | 6.06 | 30.3 | 14.7 | > 28.4 | 15.7 | 30.6 | 28.8 | 5.69 | 20.8 | 27.2 | 9.72 | 6.85 | 4.25
FC(F)(F)c1nc2c(ccc3[nH]c4c(-c5ccccc5)nccc4c32)[nH]1 | > 100 | > 100 | > 100 | > 100 | > 100 | > 100 | > 100 | > 100 | > 100 | > 64.7 | > 100 | > 100 | > 100 | > 100 | > 100
Cc1cc(=O)[nH]c(Sc2ccc([N+](=O)[O-])cc2[N+](=O)[O-])n1 | 32.9 | > 100 | 11.3 | 40.9 | > 59.5 | 31.2 | > 56.1 | 35.2 | 30 | 18.7 | > 54.3 | 38.4 | 28.3 | 29.6 | 44.7
COc1cc(/C=C/C(=O)N[C@@H]2C(=O)N3[C@@H]2SC(C)(C)[C@@H]3C(=O)O)ccc1O | > 100 | > 100 | > 100 | > 100 | > 100 | > 100 | > 100 | > 100 | > 100 | > 100 | > 100 | > 100 | > 100 | > 100 | > 100
COc1ccc(N2C(=O)C3c4[nH]c5ccc(OC)cc5c4C4CCC(c5ccccc5)CC4C3C2=O)cc1 (stereo not given) | 12.2 | 37.4 | 66 | > 100 | 21.7 | 37 | 19.3 | > 64.5 | > 49.2 | 39.7 | > 46.6 | 37 | 27.9 | > 57.7 | > 88.9
N#CC(C(=S)Nc1ccccc1)=C1Nc2ccccc2N1 | > 10 | > 10 | > 10 | > 10 | > 10 | > 10 | > 10 | > 10 | > 10 | > 10 | > 10 | > 10 | > 10 | > 10 | > 10
N#CC(C#N)=C(N)/C(C#N)=C/c1ccc(O)c(O)c1 | > 100 | > 100 | > 83.3 | > 100 | > 100 | > 100 | > 100 | > 100 | > 100 | > 100 | > 100 | > 100 | > 100 | > 100 | > 100
O=C(c1nc2ccc(Cl)cc2[nH]c1=O)C(O)c1cccc([N+](=O)[O-])c1 (stereo not given) | > 100 | > 100 | 74.1 | > 100 | > 100 | > 100 | > 100 | > 100 | > 100 | > 100 | 81.5 | 61.5 | > 100 | > 100 | > 100
CNc1ccc(Cl)cc1C(=O)N1CCC[C@H]1CO | > 100 | > 100 | > 100 | > 100 | > 100 | > 100 | > 100 | > 100 | > 100 | > 100 | > 100 | > 100 | > 100 | > 100 | > 100
CCOC(=O)/C=C(/C(=O)OCC)n1cc(C)c(=O)[nH]c1=O | 8.28 | 26.4 | 3.91 | 10.7 | 29.4 | 6.71 | > 32.2 | 13.3 | 9.81 | 5.68 | 24.6 | 15.5 | 12.3 | 5.48 | 26
O=C(O)C(C(F)(F)F)C(F)(F)F (tested in a mixture with another compound) | > 100 | > 100 | > 100 | > 100 | > 100 | > 100 | > 100 | > 100 | > 100 | > 100 | > 100 | > 100 | > 100 | > 100 | > 100
NC(=O)CNC(=O)C1CC(O)CN1C(=O)C1CCCN1C(=O)OCc1ccccc1 (stereo not drawn) (Cbz-Pro-[Hyp]-Gly-NH2; configuration not given here) | > 100 | > 100 | > 100 | > 100 | > 100 | > 100 | > 100 | > 100 | > 100 | > 100 | > 100 | > 100 | > 100 | > 100 | > 100
CCOC(=O)/C(=C/c1ccccc1)N(CC)CC | > 100 | > 100 | > 100 | > 100 | > 100 | > 100 | > 100 | > 100 | > 100 | > 100 | > 100 | > 100 | > 100 | > 100 | > 100
Oc1c(O)c(Cc2ccccc2)c(Cc2ccccc2)c(Cc2ccccc2)c1Cc1ccccc1 | > 10 | > 10 | > 10 | > 10 | > 10 | > 10 | > 10 | > 10 | > 10 | > 10 | > 10 | > 10 | > 10 | > 10 | > 10
O=C1CCCc2cc3c(cc21)CC1(C3)Cc2cc3c(cc2C1)C(=O)CCC3 | 64.8 | 53.6 | 4.6 | 23.4 | > 44.2 | 7.2 | 82.7 | > 62.5 | 36.3 | 15.6 | > 100 | 41.7 | > 85.3 | 43.1 | 31.2
NC(=S)NN=C1Cc2ccccc2C1 | > 100 | > 100 | > 100 | > 100 | > 100 | > 100 | > 100 | > 100 | > 100 | > 100 | > 100 | > 100 | > 100 | > 100 | > 100
